Measurements as given in US20080108645A1, “Dihydrotetrabenazines And Pharmaceutical Compositions Containing Them” (CAMBRIDGE LABORATORIES, (IRELAND), LTD., priority 2004, published 2008).
Entries after “also recorded” stand apart in the source; their conditions may differ.

How the values were obtained:
Monoamine Oxidase MAO-B = molecular target: T1, Monoamine Oxidase MAO-B (Homo sapiens, UniProt P27338); assay: Monoamine Oxidase MAO-B inhibition; type: biochemical; details: for inhibition at 10 µM: read-out: Percentage Inhibition of Enzyme Activity, MAO-B
T1 sequence (P27338 1-520): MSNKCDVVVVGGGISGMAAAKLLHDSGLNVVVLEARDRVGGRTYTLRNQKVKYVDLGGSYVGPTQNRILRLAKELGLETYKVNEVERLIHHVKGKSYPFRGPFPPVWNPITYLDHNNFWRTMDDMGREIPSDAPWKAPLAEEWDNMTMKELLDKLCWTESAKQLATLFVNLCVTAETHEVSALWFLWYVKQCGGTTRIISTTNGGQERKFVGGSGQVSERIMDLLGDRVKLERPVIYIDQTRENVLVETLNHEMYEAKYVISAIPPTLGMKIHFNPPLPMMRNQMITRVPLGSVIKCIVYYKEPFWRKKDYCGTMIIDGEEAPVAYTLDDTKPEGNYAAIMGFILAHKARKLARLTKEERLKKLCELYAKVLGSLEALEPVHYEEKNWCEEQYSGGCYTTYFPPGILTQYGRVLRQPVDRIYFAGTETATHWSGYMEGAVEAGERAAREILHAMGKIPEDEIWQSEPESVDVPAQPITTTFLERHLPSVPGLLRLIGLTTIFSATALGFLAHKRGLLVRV
Protocol: Isomers B and C were tested for their ability to inhibit enzymes involved in the processing of monoamines in the CNS, namely Catechol O-Methyl Transferase (COMT), Monoamine Oxidase A and Monoamine Oxidase B. The assay methods used are described below and the results are set out in Table 7. (a) Catechol O-Methyl Transferase (COMT) Inhibition • Source: […] None • Incubation time: 60 minutes @ 37° C. • Incubation buffer: 100 mM potassium phosphate, 10 mM MgCl2, 3 mM DTT containing 12 units/ml adenosine deaminase, pH 7.4 • Quantitation method: […]

[1] = molecular target: T2, Dopamine Transporter (DAT) (Homo sapiens, UniProt Q01959); assay: Dopamine transporter (DAT) radioligand binding; details: for Percentage Inhibition of Specific Binding, DAT: 10 μM, 0.15 nM [125I] RTI-55
T2 construct: expressed in transfected cells; host or cells: CHO cells
T2 sequence (Q01959 whole entry): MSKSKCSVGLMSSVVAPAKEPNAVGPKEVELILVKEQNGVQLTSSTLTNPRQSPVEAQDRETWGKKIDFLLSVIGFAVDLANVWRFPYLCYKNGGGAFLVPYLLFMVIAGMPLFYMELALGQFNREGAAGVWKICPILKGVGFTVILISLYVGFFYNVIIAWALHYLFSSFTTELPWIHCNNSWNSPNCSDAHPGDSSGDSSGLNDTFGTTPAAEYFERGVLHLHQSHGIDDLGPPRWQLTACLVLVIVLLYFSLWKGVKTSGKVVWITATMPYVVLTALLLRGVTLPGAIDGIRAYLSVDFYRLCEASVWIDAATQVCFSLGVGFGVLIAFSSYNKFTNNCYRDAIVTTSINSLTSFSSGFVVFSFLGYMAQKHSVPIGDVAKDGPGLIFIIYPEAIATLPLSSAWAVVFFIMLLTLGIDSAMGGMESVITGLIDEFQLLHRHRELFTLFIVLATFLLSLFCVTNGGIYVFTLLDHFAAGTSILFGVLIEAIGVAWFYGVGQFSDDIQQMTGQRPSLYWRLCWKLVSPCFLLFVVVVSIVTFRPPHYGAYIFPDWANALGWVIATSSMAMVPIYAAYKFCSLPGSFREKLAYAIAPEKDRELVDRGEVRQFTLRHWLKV
Protocol: (§1) (a) Adrenergic α2A Receptor: • Reference: S. Uhlen et al. J. Pharmacol. Exp. Ther., 271:1558-1565 (1994) • Source: Human recombinant insect Sf9 cells • Ligand: 1 nM [^3H] […] J. Pharmacol., 99:803-809, (1990) • Source: Wistar rat cerebral cortex • Ligand: 2 nM [3H]

[2] = test system: Catechol O-Methyl Transferase (COMT); assay: Catechol O-Methyl Transferase (COMT) inhibition; type: biochemical, Porcine; details: for Percentage Inhibition of Enzyme Activity, COMT: 10 μM
Protocol: Isomers B and C were tested for their ability to inhibit enzymes involved in the processing of monoamines in the CNS, namely Catechol O-Methyl Transferase (COMT), Monoamine Oxidase A and Monoamine Oxidase B. The assay methods used are described below and the results are set out in Table 7.
(a) Catechol O-Methyl Transferase (COMT) Inhibition • Source: Porcine liver • Substrate: 3 mM catechol+S-adenosyl-L-[^3H]methionine • Vehicle: 1% DMSO • Pre-incubation time/Temp: None • Incubation time: 60 minutes @ 37° C. • Incubation buffer: 100 mM potassium phosphate, 10 mM MgCl2, 3 mM DTT containing 12 units/ml adenosine deaminase, pH 7.4 • Quantitation method: Quantitation of [^3H] guiacol. • Significance criteria: ≧50% of maximum stimulation or inhibition (b) Monoamine Oxidase MAO-A Inhibition • Source: Human recombinant • Substrate: 50 μM kynuramine • Vehicle: 1% DMSO • Pre-incubation time/Temp: 15 minutes @ 37° C. • Incubation time: 60 minutes @ 37° C. • Incubation buffer: 100 mM KH2PO4, pH 7.4 • Quantitation method: Spectrofluorimetric quantitation of 4-hydroxyquinoline • Significance criteria: ≧50% of maximum stimulation or inhibition (c) Monoamine Oxidase MAO-B Inhibition • Source: Human recombinant • Substrate: 50 μM kynuramine • Vehicle: 1% DMSO • Pre-incubation time/Temp: 15 minutes @ 37° C. • Incubation time: 60 minutes @ 37° C. • Incubation buffer: 100 mM KH2PO4, pH 7.4 • Quantitation method: Spectrofluorimetric quantitation of 4-hydroxyquinoline • Significance criteria: ≧50% of maximum stimulation or inhibition

Human HEK-293 cells = assay: Cellular assay: inhibition of [3H] serotonin uptake by human embryonic kidney cells; type: cell-based; details: for inhibition at 10 µM: Homo sapiens, HEK293
Protocol: The ability of isomers B and C to inhibit uptake of serotonin (5-hydroxytryptamine) by human embryonic kidney cells was measured using the following assay conditions: […]

Sigma σ2 Receptor = molecular target: T3, Sigma σ2 Receptor (Rattus norvegicus, UniProt Q5U3Y7); assay: Sigma σ2 receptor radioligand binding; parameters: species or system Wistar rat; details: 3 nM [3H] Ifenprodil
T3 construct: Source: Wistar rat brain; from tissue; host or cells: Wistar rat brain
T3 sequence (Q5U3Y7 1-176): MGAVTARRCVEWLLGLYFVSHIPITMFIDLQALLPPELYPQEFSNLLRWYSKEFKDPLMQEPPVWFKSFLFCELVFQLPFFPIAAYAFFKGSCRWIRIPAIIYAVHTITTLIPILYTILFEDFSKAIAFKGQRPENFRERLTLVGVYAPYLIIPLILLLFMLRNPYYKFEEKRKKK
Protocol: as §1

5-HT1D/1B receptors = assay: 5-HT1D/1B binding assay, [N-methyl 3H] GR-125743, rat forebrain P2 membranes
Protocol: The ability of Compound B and Compound C to bind to 5-HT1D/1B receptors was tested using an assay based on the one described by Millan, M J et al. (2002) Pharmacol. Biochem. Behav. […] [N-methyl ^3H] GR-125743 was used as the radioligand for both 5-HT1D and 5-HT1B receptors. Adult SD rat forebrain P2 membranes (Chazot et al., 1993) were used for the assay. The assay buffer used was 50 mM Tris-HCl pH 7.7 at room temperature containing 4 mM calcium chloride, 0.1% ascorbic acid and 10 μM pargyline. 5-HT (10 μM) was used to define non-specific binding. Incubation with 1 nM [^3H] GR-125743 was carried out for 1 hour at room temperature, and the reaction was terminated by rapid filtration using a Brandel Harvester through GF/B filters pre-soaked in 0.1% polyethyleneimine, followed by three washes with ice-cold buffer (supplemented with 0.1% BSA). A dose range of 10^−10-10^−4M was utilised. The resultant competition curves were analysed using the GraphPad Prism 4 package.

[3] = molecular target: T4, Serotonin Transporter (SERT) (Homo sapiens, UniProt P31645); assay: Serotonin transporter (SERT) radioligand binding; details: for IC50 / Percentage Inhibition of Specific Binding, SERT: 0.15 nM [125I] RTI-55; for IC50: read-out: IC50 value (in parentheses), SERT; for Percentage Inhibition of Specific Binding, SERT: 10 μM
T4 construct: expressed in transfected cells; host or cells: HEK-293 cells
T4 sequence (P31645 whole entry): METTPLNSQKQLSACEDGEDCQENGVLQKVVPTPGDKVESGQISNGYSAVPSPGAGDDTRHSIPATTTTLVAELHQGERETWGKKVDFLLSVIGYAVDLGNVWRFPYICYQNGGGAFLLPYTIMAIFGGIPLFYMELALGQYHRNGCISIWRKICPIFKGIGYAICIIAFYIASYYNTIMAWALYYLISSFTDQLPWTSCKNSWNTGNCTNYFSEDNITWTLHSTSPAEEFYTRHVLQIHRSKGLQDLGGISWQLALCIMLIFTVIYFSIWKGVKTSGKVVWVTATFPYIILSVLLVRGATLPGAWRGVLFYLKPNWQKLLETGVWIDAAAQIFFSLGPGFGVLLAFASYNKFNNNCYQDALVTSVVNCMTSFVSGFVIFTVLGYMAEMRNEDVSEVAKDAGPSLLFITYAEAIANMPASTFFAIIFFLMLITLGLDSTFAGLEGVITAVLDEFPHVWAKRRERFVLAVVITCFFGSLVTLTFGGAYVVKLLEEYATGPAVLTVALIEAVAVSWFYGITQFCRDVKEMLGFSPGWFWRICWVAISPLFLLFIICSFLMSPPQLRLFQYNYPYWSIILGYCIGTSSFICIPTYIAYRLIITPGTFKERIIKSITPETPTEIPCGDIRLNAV
Protocol: as §1

## COc1cc2c(cc1OC)[C@H]1C[C@H](O)[C@@H](CC(C)C)CN1CC2 (single isomer, unassigned) [Isomer B, 3,11b-cis-dihydrotetrabenazine]
Monoamine Oxidase MAO-B
  inhibitory activity against monoamine oxidase isoform B (in words): no inhibitory activity
  inhibition at 10 µM: -5%
[1]
  DAT binding activity (in words): lack Dopamine Transporter (DAT) binding activity
  Percentage Inhibition of Specific Binding, DAT: 4%
[2]
  inhibitory activity against COMT (in words): no inhibitory activity
  Percentage Inhibition of Enzyme Activity, COMT: −12%
Human HEK-293 cells
  mode of action on serotonin uptake (in words): antagonist
  inhibition at 10 µM: 56%
Sigma σ2 Receptor; 10 μM
  Percentage Inhibition of Specific Binding, σ2 Receptor: 64%
5-HT1D/1B receptors
  affinity/activity at 5-HT1D/1B (in words): low affinity for 5-HT1D/1B receptors; also recorded: no inhibitory activity
[3]
  inhibition of SERT (in words): potent inhibitors
  IC50: 350 nM
  Percentage Inhibition of Specific Binding, SERT: 86%

## COc1cc2c(cc1OC)[C@H]1C[C@@H](O)[C@@H](CC(C)C)CN1CC2 (single isomer, unassigned) [Isomer C, 3,11b-cis-dihydrotetrabenazine]
Monoamine Oxidase MAO-B
  inhibitory activity against monoamine oxidase isoform B (in words): no inhibitory activity
  inhibition at 10 µM: -5%
[1]
  DAT binding activity (in words): lack Dopamine Transporter (DAT) binding activity
  Percentage Inhibition of Specific Binding, DAT: −2%
[2]
  inhibitory activity against COMT (in words): no inhibitory activity
  Percentage Inhibition of Enzyme Activity, COMT: −22%
Human HEK-293 cells
  mode of action on serotonin uptake (in words): antagonist
  inhibition at 10 µM: 86%
Sigma σ2 Receptor; read-out: Percentage Inhibition of Specific Binding, σ2 Receptor
  inhibition at 10 µM: 61%
5-HT1D/1B receptors
  affinity/activity at 5-HT1D/1B (in words): low affinity for 5-HT1D/1B receptors; also recorded: no inhibitory activity
[3]
  inhibition of SERT (in words): potent inhibitors
  IC50: 2750 nM
  Percentage Inhibition of Specific Binding, SERT: 77%
